Measured values taken from patent US20110200624A1, “NOVEL PEPTIDES FOR USE IN TRANSFECTION” (MOLECULAR TRANSFER, INC., priority 2008, published 2011).

How the values were obtained:
Experiment in all cases: Transfection with β-galactosidase reporter plasmid pCMVSPORT-β-gal, β-gal activity (ONPG)
Assay type in all cases: cell-based
[1] = tested on: PC12; settings: PC12 cells; DMS lipid (1:1 DOPE), 1.0 μg plasmid DNA, 1.0 ug peptide; β-gal activity OD 405 nm
[2] = tested on: HepG2; settings: HepG2 cells; DMS lipid (1:1 DOPE), 1.0 μg plasmid DNA, 1.0 ug peptide; β-gal activity OD 405 nm
Protocol: (§1) Transfection of, NIH3T3, HepG2, Human Fibroblast, Jurkat and Cos-7 and with β-galactosidase reporter plasmid pCMV[…]SPORT-β-gal was carried out as follows:
(§2) Cells were plated in 96-well plates with 100 μl of media containing 10% fetal calf serum the day before transfection such that a desired confluency (70%-95%) was achieved the following day. The following day DMS lipid (1:1 DOPE) and DNA/peptide were mixed in Opti-MEM to form DNA/lipid/peptide complexes. Complexes were formed by adding various amounts of lipid (1-6 μl) to 100 μl of Opti-MEM. Plasmid DNA (1.0 μg) was added to 100 μl Opti-MEM then 1.0 ug of each peptide was added to the DNA mixture and incubated for 10 minutes. The DNA/peptide and lipids solutions were then mixed to form DNA/peptide/lipid complexes. The complexes were incubated for an additional 15 minutes. After incubation 20 μl of each of the resulting complexes was added directly to the cells in 10% serum. Cells were incubated for an additional 16-24 hours to allow expression of the plasmid. Medium was removed and the cells were lysed in 100-200 μl of lysis buffer. The lysates (20 μl) were assayed for β-gal activity using the enzymatic substrate ONPG. Total activity was determined by reading the OD at 405 nm using a Bio-Rad Benchmark Microplate Spectrophotometer.

[3] = tested on: Human Fibroblast; settings: DMS lipid (1:1 DOPE), 1.0 μg plasmid DNA, 1.0 ug peptide, β-gal activity OD 405 nm
Protocol: as §1, §2

[4] = tested on: Jurkat; settings: Jurkat cells; DMS lipid (1:1 DOPE), 1.0 μg plasmid DNA, 1.0 ug peptide; β-gal activity OD 405 nm
Protocol: as §1, §2

[5] = tested on: NIH 3T3; settings: NIH 3T3 cells; DMS lipid (1:1 DOPE), 1.0 μg plasmid DNA, 1.0 ug peptide; β-gal activity OD 405 nm
Protocol: as §1, §2

Row | Substance | Fold Ehancement over Lipid Alone [1] [Fold] | Fold Ehancement over Lipid Alone [2] [Fold] | Fold Ehancement over Lipid Alone [3] [Fold] | Fold Ehancement over Lipid Alone [4] [Fold] | Fold Ehancement over Lipid Alone [5] [Fold]
1 | (K)16AARSPSYYRYDYGPYYAMDYD [Peptide #9] | 2.68 | 4.25 | 21.9 | 5.78 | 2.17
2 | (K)16AAWDDSLGI [Peptide #3] | 2.88 | 1.9 | 12.9 | 4.5 | 1.5
3 | (K)16YYCDIRLRDP [Peptide #1] | 1.8 | 0.97 | 3.7 | 4.56 | 1.7
4 | (K)16YYCQQRSSYPYTFGG [Peptide #6] | 1.13 | 4.2 | 34 | 1.75 | 1.93

Now from value to substance:

Row | Fold Ehancement over Lipid Alone [1] [Fold] | Fold Ehancement over Lipid Alone [2] [Fold] | Fold Ehancement over Lipid Alone [3] [Fold] | Fold Ehancement over Lipid Alone [4] [Fold] | Fold Ehancement over Lipid Alone [5] [Fold] | Substance
5 | 1.6 | 2 | 12 | 1.28 | 2.5 | (K)16DYYCAAWDDSLNGYSVF [Peptide #5]
6 | 2.09 | 1.3 | 14.5 | 4.8 | 0.89 | (K)16NSRDSSGIQNV [Peptide #2]
7 | 2.5 | 1.2 | 11.7 | 4.75 | 1.65 | (K)16VELDSFDY [Peptide #4]
8 | 0.37 | 1.6 | 19.9 | 1 | 1.86 | (K)16YYCARSDGNYGYYYALDYDY [Peptide #8]
9 | 0.91 | 3.3 | 29 | 1.47 | 1.46 | (K)16YYCLQSMEDPYTFGG [Peptide #7]
10 | 1.4 | 2.5 | 22.7 | 2 | 2.1 | (K)16YYCQQSYSTPWTFGQGTK [Peptide #10]
